The test system of experiment [1] is RAW264.7. Nature of the experiment: Antiinflammatory activity in mouse RAW264.7 cells assessed as inhibition of IL-6 production. It is filed as functional, cell-based. The conditions noted are these: dose <= 100.0 µg/ml.
Experiment [2] concerns RAW264.7. Nature of the experiment: Antiinflammatory activity in LPS induced mouse RAW264.7 cells assessed as inhibition of IL-6 production at 100 ug/ml measured after 24 hrs. It is filed as functional. The conditions noted are these: dose 100 µg/ml.
Experiment [3] concerns RAW264.7. Nature of the experiment: Antiinflammatory activity in LPS induced mouse RAW264.7 cells assessed as reduction in TNF-alpha production at 100 ug/ml measured after 24 hrs. It is filed as functional. Particulars: dose 100 µg/ml.
In experiment [4] the test system is Streptococcus mutans. Nature of the experiment: Antibacterial activity against Streptococcus mutans ATCC 25175 assessed as reduction in bacterial growth at 1.25 to 100 ug/ml by broth microdilution method. Particulars: dose 1.25-100 µg/ml. It is filed as functional, organism-based.
For experiment [5], the system named is Streptococcus sobrinus. The experiment can be described thus: Antibacterial activity against Streptococcus sobrinus ATCC 33478 assessed as reduction in bacterial growth at 1.25 to 100 ug/ml by broth microdilution method. It is filed as functional, organism-based. Particulars: dose 1.25-100 µg/ml. Background: In broth dilution the organism is exposed to a series of concentrations in liquid medium.

For experiment [6], the system named is RAW264.7. The experiment can be described thus: Antiinflammatory activity in mouse RAW264.7 cells assessed as inhibition of TNF-alpha production. It is filed as functional, cell-based. The conditions noted are these: dose <= 100.0 µg/ml.
In experiment [7] the test system is Streptococcus sobrinus. Nature of the experiment: Antibacterial activity against Streptococcus sobrinus ATCC 33478 assessed as reduction in bacterial growth at 1.25 to 100 ug/ml by broth microdilution method relative to control. It is filed as functional. The arrangement: scale not given: the % may be the effect or the level left. Particulars: dose 1.25-100 µg/ml; at 1.25 to 100 µg/mL.

Experiment [8] deals with Streptococcus mutans. Nature of the experiment: Antibacterial activity against Streptococcus mutans ATCC 25175 assessed as reduction in bacterial growth at 1.25 to 100 ug/ml by broth microdilution method relative to control. Particulars: dose 1.25-100 µg/ml; at 1.25 to 100 µg/mL. Further details: scale not given: the % may be the effect or the level left. It is filed as functional.

Structures are written as SMILES. The source made the active and inactive calls. No cut-off for these calls is given here.

Consider `C[C@@H](/C=C/[C@@]1(O)C(C(=O)O)=CC(=O)CC1(C)C)O[C@@H]1O[C@H](CO)[C@@H](O)[C@H](O)[C@H]1O`, for which the Activity result is “Dose-Dependent Effect” with RAW264.7 [1], 1570.7 pg/mL in the experiment on RAW264.7 [2], 9806.7 pg/mL in the experiment with RAW264.7 [3] and “Dose-Dependent Effect” with RAW264.7 [6]. Moreover, the outcome in the experiment on Streptococcus mutans [4] and in the experiment on Streptococcus sobrinus [5] was inactive.

On to `C[C@H]1O[C@@H](c2c(O[C@@H]3O[C@H](CO)[C@@H](O)[C@H](O)[C@H]3O)cc3oc(-c4ccc(O)c(O)c4)cc(=O)c3c2O)C[C@H](O)[C@H]1O` [FAROBIN A], for which the Activity entry in the experiment on RAW264.7 [1] was “Dose-Dependent Effect”; in the experiment on Streptococcus sobrinus [7] it was 26%; in the experiment with RAW264.7 [2], 1051.8 pg/mL; with RAW264.7 [3] it was 9606 pg/mL; in the experiment on Streptococcus mutans [8], 28%; in the experiment with RAW264.7 [6], “Dose-Dependent Effect”.

`C[C@@H]1O[C@@H](O[C@H]2[C@@H](O)[C@H](O)[C@@H](C)O[C@H]2c2c(O)cc3oc(-c4ccc(O)c(O)c4)cc(=O)c3c2O)[C@@H](O)[C@H](O)[C@H]1O`: the Activity entry is “Dose-Dependent Effect” in the experiment on RAW264.7 [1]; 26% with Streptococcus sobrinus [7]; 766.6 pg/mL with RAW264.7 [2]; 7473.5 pg/mL in the experiment with RAW264.7 [3]; 24% in the experiment on Streptococcus mutans [8]; “Dose-Dependent Effect” in the experiment on RAW264.7 [6].

The record behind these values is ChEMBL document CHEMBL5634168, “The discovery of an anti-inflammatory monoterpenoid, neoroseoside from the Zea mays” (2024).
